Assay results: the NIST ThermoML archive (doi:10.1016/j.fluid.2010.10.028)

Assay: xn = mol fraction of the nth substance listed
Conditions: Liquid, Vibrating tube method

CC(C)=O [acetone] + CCCCCCC
Conditions	mass density [kg/m3]
357.55 K, 24990 kPa, x1 = 0.4	726.84
357.55 K, 24990 kPa, x1 = 0.8992	726.84
357.55 K, 29870 kPa, x1 = 0.492	686.24
357.55 K, 29870 kPa, x1 = 0.611	695.58
357.55 K, 29970 kPa, x1 = 0.4	732.49
357.55 K, 29970 kPa, x1 = 0.8992	732.49
357.55 K, 34840 kPa, x1 = 0.492	691.34
357.55 K, 34860 kPa, x1 = 0.611	700.78
357.55 K, 34960 kPa, x1 = 0.4	737.79
357.55 K, 34960 kPa, x1 = 0.8992	737.79
357.55 K, 39860 kPa, x1 = 0.492	696.15
357.55 K, 39860 kPa, x1 = 0.611	705.69
357.55 K, 39960 kPa, x1 = 0.4	742.81
357.55 K, 39960 kPa, x1 = 0.8992	742.81
357.55 K, 44840 kPa, x1 = 0.492	700.71
357.55 K, 44850 kPa, x1 = 0.611	710.3
357.55 K, 44950 kPa, x1 = 0.4	747.57
357.55 K, 44950 kPa, x1 = 0.8992	747.57
357.55 K, 49840 kPa, x1 = 0.611	714.7
357.55 K, 49940 kPa, x1 = 0.4	752.09
357.55 K, 49940 kPa, x1 = 0.8992	752.09
357.55 K, 54850 kPa, x1 = 0.492	709.15
357.55 K, 54940 kPa, x1 = 0.4	756.43
357.55 K, 54940 kPa, x1 = 0.611	718.97
357.55 K, 54940 kPa, x1 = 0.8992	756.43
357.55 K, 59860 kPa, x1 = 0.492	713.06
357.55 K, 59930 kPa, x1 = 0.4	760.56
357.55 K, 59930 kPa, x1 = 0.611	722.96
357.55 K, 59930 kPa, x1 = 0.8992	760.56
357.55 K, 64830 kPa, x1 = 0.492	716.77
357.55 K, 64890 kPa, x1 = 0.4	764.53
357.55 K, 64890 kPa, x1 = 0.8992	764.53
357.55 K, 69890 kPa, x1 = 0.4	768.36
357.55 K, 69890 kPa, x1 = 0.8992	768.36
357.55 K, 69910 kPa, x1 = 0.611	730.41
357.55 K, 69930 kPa, x1 = 0.492	720.43
357.55 K, 74860 kPa, x1 = 0.4	772.01
357.55 K, 74860 kPa, x1 = 0.8992	772.01
357.55 K, 74890 kPa, x1 = 0.611	733.9
357.55 K, 74910 kPa, x1 = 0.492	723.89
357.55 K, 79780 kPa, x1 = 0.7024	747.09
357.55 K, 79880 kPa, x1 = 0.611	737.26
357.55 K, 84830 kPa, x1 = 0.4	778.99
357.55 K, 84830 kPa, x1 = 0.8992	778.99
357.55 K, 89740 kPa, x1 = 0.7024	753.59
357.55 K, 89810 kPa, x1 = 0.4	782.3
357.55 K, 89810 kPa, x1 = 0.8992	782.3
357.55 K, 89830 kPa, x1 = 0.611	743.64
357.55 K, 94820 kPa, x1 = 0.611	746.67
357.55 K, 94860 kPa, x1 = 0.492	736.47
357.55 K, 99800 kPa, x1 = 0.611	749.61
357.55 K, 99820 kPa, x1 = 0.7024	759.74
357.55 K, 104700 kPa, x1 = 0.4	791.65
357.55 K, 104700 kPa, x1 = 0.8992	791.65
357.55 K, 104820 kPa, x1 = 0.7024	762.65
357.55 K, 109810 kPa, x1 = 0.7024	765.49
357.55 K, 114810 kPa, x1 = 0.7024	768.22
357.55 K, 119810 kPa, x1 = 0.7024	770.9
357.55 K, 124810 kPa, x1 = 0.7024	773.52
357.55 K, 129800 kPa, x1 = 0.7024	776.06
357.56 K, 1060 kPa, x1 = 0.801	677.14
357.56 K, 4870 kPa, x1 = 0.801	683.82
357.56 K, 9840 kPa, x1 = 0.801	691.71
357.56 K, 14860 kPa, x1 = 0.801	698.89
357.56 K, 34850 kPa, x1 = 0.801	722.54
357.56 K, 49850 kPa, x1 = 0.492	705.01
357.56 K, 59820 kPa, x1 = 0.801	745.17
357.56 K, 64910 kPa, x1 = 0.611	726.75
357.56 K, 64920 kPa, x1 = 0.801	749.17
357.56 K, 69910 kPa, x1 = 0.801	752.93
357.56 K, 74880 kPa, x1 = 0.801	756.52
357.56 K, 79850 kPa, x1 = 0.4	775.55
357.56 K, 79850 kPa, x1 = 0.8992	775.55
357.56 K, 79900 kPa, x1 = 0.492	727.2
357.56 K, 84860 kPa, x1 = 0.611	740.5
357.56 K, 84870 kPa, x1 = 0.801	763.37
357.56 K, 84890 kPa, x1 = 0.492	730.4
357.56 K, 89840 kPa, x1 = 0.801	766.6
357.56 K, 89880 kPa, x1 = 0.492	733.49
357.56 K, 94780 kPa, x1 = 0.4	785.51
357.56 K, 94780 kPa, x1 = 0.8992	785.51
357.56 K, 94830 kPa, x1 = 0.801	769.76
357.56 K, 99750 kPa, x1 = 0.4	788.61
357.56 K, 99750 kPa, x1 = 0.8992	788.61
357.56 K, 99810 kPa, x1 = 0.801	772.8
357.56 K, 99830 kPa, x1 = 0.492	739.34
357.56 K, 104780 kPa, x1 = 0.611	752.46
357.56 K, 104780 kPa, x1 = 0.801	775.76
357.56 K, 104810 kPa, x1 = 0.492	742.14
357.56 K, 109680 kPa, x1 = 0.4	794.58
357.56 K, 109680 kPa, x1 = 0.8992	794.58
357.56 K, 109800 kPa, x1 = 0.492	744.86
357.56 K, 109860 kPa, x1 = 0.611	755.29
357.56 K, 114650 kPa, x1 = 0.4	797.46
357.56 K, 114650 kPa, x1 = 0.8992	797.46
357.56 K, 114760 kPa, x1 = 0.492	747.47
357.56 K, 114840 kPa, x1 = 0.801	781.49
357.56 K, 114860 kPa, x1 = 0.611	758
357.56 K, 119620 kPa, x1 = 0.4	800.25
357.56 K, 119620 kPa, x1 = 0.8992	800.25
357.56 K, 119840 kPa, x1 = 0.611	760.62
357.56 K, 119850 kPa, x1 = 0.492	750.09
357.56 K, 124590 kPa, x1 = 0.4	802.96
357.56 K, 124590 kPa, x1 = 0.8992	802.96
357.56 K, 124850 kPa, x1 = 0.492	752.62
357.56 K, 124850 kPa, x1 = 0.611	763.18
357.56 K, 124850 kPa, x1 = 0.801	786.88
357.56 K, 129540 kPa, x1 = 0.4	805.62
357.56 K, 129540 kPa, x1 = 0.8992	805.62
357.56 K, 129840 kPa, x1 = 0.492	755.04
357.56 K, 129850 kPa, x1 = 0.611	765.68
357.57 K, 19850 kPa, x1 = 0.801	705.47
357.57 K, 24850 kPa, x1 = 0.801	711.56
357.57 K, 29850 kPa, x1 = 0.801	717.2
357.57 K, 39860 kPa, x1 = 0.801	727.56
357.57 K, 44860 kPa, x1 = 0.801	732.3
357.57 K, 49830 kPa, x1 = 0.801	736.79
357.57 K, 54840 kPa, x1 = 0.801	741.09
357.57 K, 79870 kPa, x1 = 0.801	760
357.57 K, 109760 kPa, x1 = 0.801	778.61
357.57 K, 119850 kPa, x1 = 0.801	784.21
357.57 K, 129840 kPa, x1 = 0.801	789.47
367.47 K, 1110 kPa, x1 = 0.7024	653.24
367.47 K, 4830 kPa, x1 = 0.7024	660.5
367.47 K, 9820 kPa, x1 = 0.7024	669.16
367.47 K, 14810 kPa, x1 = 0.7024	676.86
367.47 K, 19800 kPa, x1 = 0.7024	683.87
367.47 K, 24870 kPa, x1 = 0.7024	690.44
367.47 K, 29900 kPa, x1 = 0.7024	696.42
367.47 K, 29980 kPa, x1 = 0.4	723.61
367.47 K, 29980 kPa, x1 = 0.8992	723.61
367.47 K, 34870 kPa, x1 = 0.7024	701.98
367.47 K, 39870 kPa, x1 = 0.7024	707.22
367.47 K, 44860 kPa, x1 = 0.7024	712.14
367.47 K, 49850 kPa, x1 = 0.7024	716.78
367.47 K, 54840 kPa, x1 = 0.7024	721.18
367.47 K, 59880 kPa, x1 = 0.4	753.02
367.47 K, 59880 kPa, x1 = 0.8992	753.02
367.47 K, 64830 kPa, x1 = 0.7024	729.41
367.47 K, 69810 kPa, x1 = 0.7024	733.25
367.47 K, 79780 kPa, x1 = 0.7024	740.5
367.47 K, 89740 kPa, x1 = 0.7024	747.21
367.47 K, 94830 kPa, x1 = 0.7024	750.48
367.47 K, 99830 kPa, x1 = 0.7024	753.58
367.47 K, 104830 kPa, x1 = 0.7024	756.58
367.47 K, 109810 kPa, x1 = 0.7024	759.49
367.47 K, 114820 kPa, x1 = 0.7024	762.32
367.47 K, 119810 kPa, x1 = 0.7024	765.08
367.47 K, 124820 kPa, x1 = 0.7024	767.78
367.47 K, 129810 kPa, x1 = 0.7024	770.39
367.48 K, 1150 kPa, x1 = 0.611	644.69
367.48 K, 5040 kPa, x1 = 0.4	687.92
367.48 K, 5040 kPa, x1 = 0.8992	687.92
367.48 K, 9850 kPa, x1 = 0.611	660.49
367.48 K, 10030 kPa, x1 = 0.4	696.45
367.48 K, 10030 kPa, x1 = 0.8992	696.45
367.48 K, 15010 kPa, x1 = 0.4	704.13
367.48 K, 15010 kPa, x1 = 0.8992	704.13
367.48 K, 19860 kPa, x1 = 0.611	675.16
367.48 K, 20000 kPa, x1 = 0.4	711.11
367.48 K, 20000 kPa, x1 = 0.8992	711.11
367.48 K, 24860 kPa, x1 = 0.611	681.55
367.48 K, 25000 kPa, x1 = 0.4	717.58
367.48 K, 25000 kPa, x1 = 0.8992	717.58
367.48 K, 29870 kPa, x1 = 0.611	687.49
367.48 K, 34860 kPa, x1 = 0.611	693
367.48 K, 39940 kPa, x1 = 0.4	734.49
367.48 K, 39940 kPa, x1 = 0.8992	734.49
367.48 K, 44850 kPa, x1 = 0.611	703
367.48 K, 44920 kPa, x1 = 0.4	739.45
367.48 K, 44920 kPa, x1 = 0.8992	739.45
367.48 K, 49910 kPa, x1 = 0.4	744.24
367.48 K, 49910 kPa, x1 = 0.8992	744.24
367.48 K, 49940 kPa, x1 = 0.611	707.7
367.48 K, 54900 kPa, x1 = 0.4	748.72
367.48 K, 54900 kPa, x1 = 0.8992	748.72
367.48 K, 54920 kPa, x1 = 0.611	712.06
367.48 K, 59830 kPa, x1 = 0.7024	725.38
367.48 K, 64860 kPa, x1 = 0.4	757.11
367.48 K, 64860 kPa, x1 = 0.8992	757.11
367.48 K, 64900 kPa, x1 = 0.611	720.16
367.48 K, 69840 kPa, x1 = 0.4	761.04
